# Reference: a melting point compilation (Tetko et al.; mined from patent text by program, amines drawn as free bases though some values may be those of a salt)
row,Compound,melting point [°C]
1,O=C(O)C1(CCCCCCCCCCCCC2(C(=O)NC3CC3)CC2)CC1,95.3 to 97.7
2,Cn1ccnc1CCc1cc2c(cc1O)CCO2,190 to 191
3,Cc1nnc2n1-c1sc(CCc3ccc(OC(C)C)cc3)cc1C(c1ccccc1Cl)=NC2,121 to 124
4,C=C(F)C(C)(C)C(=O)Nc1ccc(Cl)cc1,75 to 76
5,OCCCc1ccc(OCc2coc(/C=C/c3ccccc3)n2)cc1,95 to 96
6,CC(Oc1ccc(Oc2ccc(C#N)cc2)cc1)C(=O)Nc1ccccc1 (stereo not given),133 to 134
7,O=c1cc(CBr)c2c(Cl)cc(Cl)cc2[nH]1,299 to 301
8,Cc1nn(Cc2ccccc2)c2c1C(=O)CC(C)(C)C2,133 to 134
9,CC1C(=NCCCN(C)C)c2c([nH]c3ccc(Cl)cc3c2=O)CC1c1ccc(C(F)(F)F)cc1 (stereo not given),169 to 170
10,COc1ccc(-c2nccc3c(C)cccc23)cc1,60.4 to 60.8
11,Cc1ccccc1-c1ccc(C(=O)N2Cc3ccc(C(=O)NCCCc4ccccc4)n3Cc3ccccc32)cc1C,183 to 184
12,O=C(O)CON=CCBr,56 to 58
13,O=C(c1ccccc1)C(O)C1OC(n2cnc3c(NC4CCCc5ccccc54)ncnc32)C(O)C1O (stereo not given),107 to 112
14,FC(F)(F)c1cc(CO[C@@H]2CCCN(Cc3nnn[nH]3)[C@@H]2c2ccccc2)cc(C(F)(F)F)c1 (relative stereo),114 to 115
15,COc1cccc2c1CN(Cc1c[nH]c3ccccc13)C2,176 to 179
16,O=C(O)c1ccc(N2CCCCC2)c(NC(=O)C(CS)Cc2ccccc2)c1 (stereo not given),142 to 146
17,O=C(Nc1cccc2c(Cn3cnc4ccccc43)ccnc12)c1c(Cl)cccc1Cl,248 to 253
18,O=c1[nH][nH]c2c1c(O)nc1cc(Cl)c(Cl)cc12,> 350
19,CCOC(=O)CCNc1nc2c(C)cc(C)cc2n1Cc1nc(C)ccc1O,180
20,Nc1nc2c(ncn2OCCCCP(=O)(O)O)c(=O)[nH]1,208
21,O=C(OCc1ccccc1)c1ncoc1CCNC(=O)[C@H](Cc1cccs1)N[C@@H](CCc1ccccc1)C(=O)OCc1ccccc1,81 to 83
22,O=C(O)Cc1cc(=O)n(Cc2ccc(Cl)cc2)c2ccccc12,208 to 209
23,CCCCOc1ncc(C(C)=O)cc1-c1nn2c(CC)nc(C)c2c(=O)[nH]1,190 to 196
24,O=c1[nH]c2cc(Cl)c(F)c([N+](=O)[O-])c2[nH]c1=O,308 to 310
25,Cc1cc2c(CN3CCC(C)CC3)c(CO)c(Cl)nc2cc1Cl,170 to 172

row,Compound,melting point [°C]
1,O=C(NCC(=O)N1CCCCC1)OCc1ccccc1,111 to 112
2,O=S(=O)(Cc1ccccc1)c1nc[nH]n1,160 to 162
3,O=[N+]([O-])c1ccc2nc(-c3ccccc3)cc(Cl)c2c1,166 to 167
4,CN(C)C(=O)Cc1csc(NC(=O)C(Cc2ccccc2)NC(=O)OC(C)(C)C)n1 (stereo not given),139 to 140
5,COc1ccc2[nH]cc(S(=O)(=O)c3ccccc3)c2c1,151 to 155
6,O=C1CCC(N2C(=O)c3cccc(CNC(=O)c4ccc(Cl)c(Cl)c4)c3C2=O)C(=O)N1 (stereo not given),161 to 163
7,C=CCc1c(OCC(O)COc2ccc3c(=O)cc(C(=O)O)oc3c2CC=C)ccc(C(C)=O)c1O (stereo not given),105
8,O=C(O)C(=O)c1ccsc1,63
9,N#CCCOc1ccc(OCCC#N)cc1,138 to 140
10,COC(=O)C=Cc1ccc(Cl)c([N+](=O)[O-])c1,107
11,O=C(N[C@H](Cc1cccc(OC(F)(F)C(F)F)c1)[C@@H](O)c1ccnc(F)c1)c1cccc2c1C=CCCC2 (racemic),159 to 160
12,Cc1cccc(C(=O)Nc2c[nH]nc2C(=O)NCCCOC(C)C)n1,169 to 170
13,Cc1cc(C)cc(C(=O)c2c(C(C)C)c(=O)[nH]c(=O)n2C/C=C/CN=[N+]=[N-])c1,126 to 127
14,COC(=O)C(Oc1cc(OCc2ccsc2)ccc1C#N)c1ccccc1Br (racemic),92 to 95
15,O=C(Nc1ccc2c(c1)CCC(CCl)=C2)c1ccc(-c2ccc(Cl)cc2)cc1,179 to 181
16,CCc1ccc(N(Cc2ccc(N(C)C)cc2)C(=O)C2CCCc3ccccc32)cc1 (stereo not given),109 to 110
17,O=S(=O)(c1ccccc1)N1CCC(Nc2nc(Cl)nc(N3CCCC3)n2)CC1,184 to 186
18,Cc1ccccc1CC(C(=O)O)C(=O)O,132 to 135
19,Cc1cc(SCCc2ccc(-c3ccc(C(F)(F)F)cc3)cc2)ccc1OCC(=O)O,132 to 134
20,COc1cc(Nc2nc3cccc(-c4cccc(N)c4)c3o2)cc(OC)c1OC,145 to 170
21,CCOc1ccc(-n2c(N)cc(=O)nc2SC)cc1,177 to 181
22,O=c1oc(-c2c(F)cccc2Cl)nn1-c1ccccc1C(F)(F)F,109 to 110
23,COc1c(CCc2ccc(F)cc2)cc(Cl)cc1C(N)=O,85
24,Cn1ncnc1COc1nn2c(-c3c(F)cccc3F)nncc2c1-c1ccccc1F,163
25,O=C1CCC(N2Cc3c(OCc4cccc(Cl)c4Cl)cccc3C2=O)C(=O)N1 (stereo not given),272 to 274

row,Compound,melting point [°C]
1,CC(C)Nc1c([N+](=O)[O-])cnn1-c1ncc(Cl)cc1Cl,123
2,CCOCn1c(Br)c(Br)c(S(=O)(=O)C(F)(F)F)c1-c1ccc(Cl)cc1,133 to 135
3,CCOc1ccc2[nH]c(=O)n(C3CCOCC3)c2c1,155
4,N#Cc1c(N2CCN(C(=O)c3cccs3)CC2)c2cc(F)cnc2[nH]c1=O,244
5,O=C(O)CCCOc1ccc2nc3[nH]c(=O)[nH]c3cc2c1,> 320
6,Cc1cc(-c2c(F)cc3c(=O)c(C(=O)O)cn4c3c2OC[C@@H]4C)cc(C)n1,305 to 308
7,COCc1c(C(=O)OC)ncc2[nH]c3ccccc3c12,134 to 135
8,Cc1ccc(-c2[nH]c(C3CCCCC3)nc2C(=O)O)cc1,205 to 206
9,COCCOc1cccc(-c2ccc(C3CCN(S(=O)(=O)C(C)(C)C(=O)O)CC3)cc2C)n1,142 to 146
10,O=C(c1ccc(F)c(F)c1)N1CCC[C@H](c2nc(-c3ccc([N+](=O)[O-])cc3)no2)C1,138 to 140
11,FC(F)(F)Oc1cccc(-c2ccc3nnn(Cc4ccc5ncccc5c4)c3n2)c1,140 to 142
12,COc1cc2c3c(n(CCCCO)c(=O)c2cc1OC)-c1cc2c(cc1C3=O)OCO2,304 to 308
13,CNC(=O)c1cc2c(Oc3ccc(C(=O)NCCN4CCOCC4)cc3)cncc2s1,226 to 228
14,N#CC=Cc1ccc(CBr)cc1,105 to 107
15,C[C@@H](n1cnc2cc(Sc3ccccc3)ccc2c1=O)[C@](O)(Cn1cncn1)c1ccc(F)cc1F,84 to 87
16,Nc1ncc(-c2noc(-c3cnn4c(C(F)(F)F)cc(-c5ccc(Cl)c(Cl)c5)nc34)n2)cn1,300
17,CS(=O)(=O)OCC1CCN(C(=O)c2ccccc2)CC1,87 to 90
18,CCCCCCCCCCc1cccc(C(=O)N(O)CCCC(=O)O)c1,77 to 79
19,CCCc1c(OCCCCC#N)ccc(C(=O)c2ccccc2O)c1O,81 to 82
20,CC(C)(C)c1nnc(NN)s1,111 to 112
21,COc1ccc(CCNC(=O)NO)cc1OC,109 to 111
22,N#Cc1cc(OCF)cc([N+](=O)[O-])c1Cl,27 to 28
23,O=C(c1ccc(OCCCl)cc1)N1CCOCC1,102 to 104
24,O=C(Nc1cccc(C(F)(F)F)c1)c1cccnc1Cl,117 to 118
25,Cc1cccc(NC(=O)C2=C(O)c3ccccc3S(=O)(=O)N2C)c(=O)c1,276 to 280

row,Compound,melting point [°C]
1,COc1nnc2n1C=Cc1cc(Cl)ccc1C2,177 to 178
2,Cc1noc(C)c1-c1nn(Cc2ccccc2)c(=O)c2ccccc12,186 to 188
3,O=C(Cc1ccccc1C1CCCC1)N[C@H]1CCN(CCc2ccccc2)C1,117 to 119
4,O=C(NCCc1c[nH]c2ccccc12)OCC1CC1,88 to 90
5,CS(=O)(=O)c1ccc(-c2nc(=O)c3ccccc3s2)cn1,205 to 207
6,COc1ccccc1N1CCN(CCNC(=O)CCN2CCC(c3c[nH]c4cc(F)ccc34)CC2)CC1,68 to 70
7,COc1ccc(C=O)cc1-c1cccs1,137 to 138
8,Cc1noc(NS(=O)(=O)c2ccccc2-c2ccc(-c3ncco3)cc2CN(C)C(=O)c2ccccc2F)c1C,127 to 137
9,CCOC(=O)Cc1ccnc(C(SC)=C(C#N)C#N)c1,148 to 152
10,CC(C)Cn1c(C(=O)O)c(OCCCC(F)(F)F)c2cc(OCc3ccccc3)ccc2c1=O,130 to 131
11,CCCCCN1C(=O)C2(COc3cc4c(cc32)CCO4)c2ccccc21 (stereo not given),128 to 129
12,CS(=O)(=O)c1ccc(-c2c(-c3ccc(F)cc3)c(OCc3ccccc3)nn2Cc2ccccc2)cc1,174 to 175
13,CC(C)C1Sc2c(Cl)cccc2NC1=O (stereo not given),158 to 159
14,C1=C(c2nc(COc3ccc(CCCCn4cncn4)cc3)co2)CCc2ccccc21,96 to 97
15,Cc1nc(-c2ccc(Cl)cc2)n(-c2ccc(S(N)(=O)=O)cc2)n1,247 to 249
16,CCC(Oc1ccc(S(=O)(=O)c2ccc(C)nc2Nc2c(C)cc(C)cc2C)cc1)C(=O)OC (stereo not given),111 to 113
17,C[C@H]1[C@H](N)CN1c1cc2c(cc1F)c(=O)c(C(=O)O)cn2C(C)(C)C (relative stereo),225 to 227
18,OCC1Cc2cc(F)cc(Br)c2O1 (stereo not given),53 to 57
19,CC(=O)N1N=C(c2ccc([N+](=O)[O-])c(C)c2)c2cc3c(cc2CC1C)OCO3 (stereo not given),123 to 127
20,CC(=O)OC1CSC(Oc2cncc(-c3ccc(C(F)(F)F)cc3)c2)C(OC(C)=O)C1OC(C)=O (stereo not given),163 to 164
21,CCc1cc(CC)c(-c2c(OCCl)c(C)nn(C)c2=O)c(CC)c1,103 to 104
22,CC(C)n1nc(O)nc1N1CCCC1,123 to 125
23,COc1cc2oc(=O)c(CCOS(C)(=O)=O)c(C)c2c(OC)c1OC,114 to 115
24,CC(=O)c1cc([N+](=O)[O-])c(N)cc1C#N,255 to 260
25,CC(C)n1nc(-c2c(Nc3ccccc3)nc(N)nc2-c2ccccc2)ccc1=O,240 to 242
